In data set [1] the test system is BRAF monomers in A375 cells. Nature of the data set: A375 AlphaLISA SureFire pERK1/2 cellular assay (monomer). It counts as cell-based. The conditions noted are these: Homo sapiens, A-375; A375 cells, 1 hr; read-out: pERK A375 (1 hr) pIC50 (converted). In outline: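 BRAF^V600E A375 melanoma cells seeded at 30,000/well in DMEM with 10% FBS, dosed without medium exchange in a 10-point series from 10 μM at 1/2-log steps, 1 h at 37 °C. Phospho-ERK1/2 (Thr202/Tyr204) measured in lysates by AlphaLISA SureFire; absolute IC50 relative to DMSO control.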
Background: Bead proximity is the source of the signal in Alpha formats.

For data set [2], the system named is constitutive ERK phosphorylation in WiDr cells. Nature of the data set: WiDr AlphaLISA SureFire pERK1/2 cellular assay. The format is cell-based, human. The conditions noted are these: Homo sapiens, WiDr cells, 2 hr, read-out: pERK WiDr (2 hr) Abs pIC50 (converted). How it is done: The human HCT-116 colorectal carcinoma cell line (ATCC CCL-247) endogenously expresses the KRAS^G13D mutation, which leads to constitutive activation of the MAP kinase pathway and phosphorylation of ERK. […] Assay read outs took place 2 or 24 hours after dosing with compounds. On the first day, HCT-116 cells were harvested, resuspended in growth medium (McCoys5A with Glutamax (Life Technologies 36600021) and 10% heat-inactivated fetal bovine serum (Sigma F9665)), and counted. Cells were plated in 100 μl per well in each well of a 96-well culture dish (Sigma CLS3598) to a final density of 30,000 (2 hr read) or 15,000 (24 hr read) cells per well and incubated over night at 37° C. and 5% CO2. On day 2, the growth medium was exchanged for dosing medium (McCoys5A with Glutamax (Life Technologies 36600021) and 1% heat-inactivated fetal bovine serum (Sigma F9665)) and the cells were dosed with compounds to produce a 10-point dose response, where the top concentration was 1 μM and subsequent concentrations were at 1/3 log dilution intervals. A matched DMSO control was included. The cells were subsequently incubated for either 2 or 24 hours at 37° C. and 5% CO2. After incubation, media was removed and the cells were incubated with lysis buffer containing phosphatase inhibitors for 15 minutes at room temperature. Cell lysates were transferred to a 12 area 96 well white Optiplate™ (Perkin Elmer 6005569) and incubated with anti-mouse IgG acceptor beads, a biotinylated anti-ERK1/2 rabbit antibody recognizing both phosphorylated and non-phosphorylated ERK1/2, a mouse antibody targeted to the Thr202/Tyr204 epitope and recognizing phosphorylated ERK proteins only, and streptavidin-coated donor beads. The biotinylated antibody binds to the streptavidin-coated donor beads and the phopsho-ERK1/2 antibody binds to the acceptor beads. Plates were read on an EnVision reader (Perkin Elmer) and excitation of the beads at 680 nm with a laser induced the release of singlet oxygen molecules from the donor beads that trigger energy transfer to the acceptor beads in close proximity, producing a signal that can be measured at […]. Both antibodies bound to phosphorylated ERK proteins, bringing the donor and acceptor beads into close proximity. All data were analyzed using the Dotmatics or GraphPad Prism software packages. Inhibition of ERK phosphorylation was assessed by determination of the absolute IC50 value, which is defined as the concentration of compound required to decrease the level of phosphorylated ERK proteins by 50% when compared to DMSO control.
WiDr AlphaLISA SureFire pERK1/2 Cellular Assay
The human WiDr colorectal adenocarcinoma cell line (ATCC CCL-218) endogenously expresses the BRAF^V600E mutation, which leads to constitutive activation of the MAP kinase pathway and phosphorylation of ERK. […] The main procedure is essentially the same as for HCT-116 cells (above), with the following adjustments to the growth medium (Eagle's Minimum Essential Medium (Sigma M2279) with 1× Glutamax (Life Technologies 35050038), 1× Sodium-Pyruvate (Sigma S8636), and 10% heat-inactivated fetal bovine serum (Sigma F9665)), the dosing medium (Eagle's Minimum Essential Medium (Sigma M2279) with 1× Glutamax (Life Technologies 35050038), 1× Sodium-Pyruvate (Sigma S8636), and 1% heat-inactivated fetal bovine serum (Sigma F9665)), and the seeding densities (2 hr: 50,000 cells per well; 24 hr: 35,000 cells per well). Moreover, the compounds were dosed in 1/2 log dilution intervals with the top concentration of 10 μM.

The nature of data set [3]: Microsomal stability assay, human liver microsomes (HLM). It counts as in vitro ADME. The conditions noted are these: 0.5 mg/mL protein, 1 μM substrate. In outline: (§1)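 Substrate depletion: 1 μM compound incubated at 37° C. with cryopreserved mouse or human liver microsomes at 0.5 mg·mL^−1 protein. Timed aliquots quenched in ice-cold organic solvent and measured by LC-MS/MS; t1/2 and CLint derived from the slope of ln % remaining versus time.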
A general note: Liver microsomes are vesicles of endoplasmic reticulum, rich in cytochrome P450 enzymes.

Data set [4] can be described thus: Microsomal stability assay, mouse liver microsomes (MLM). The format is in vitro ADME. The conditions noted are these: 0.5 mg/mL protein, 1 μM substrate. The method, boiled down:
as §1

Data set [5] can be described thus: Plasma protein binding assay, mouse plasma (mPPB). The conditions noted are these: 5 μM. It counts as in vitro ADME. The method, boiled down:
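Equilibrium dialysis of 5 μM compound in previously frozen human or mouse plasma against phosphate buffer, 4 h at 37 °C. Both chambers quantified by LC-MS/MS; % free = (1−((PC−PF)/PC))×100.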

[6] abbreviates: equilibrium dialysis 4 hours 37° C.
Where [7] appears, read: equilibrium dialysis 4 hours at 37° C.

Where a name gives a salt, the structure may show the parent alone. Read-outs that look alike come from different tables or passages of the source.

A word on the microsomal CLint: it is a measure of how fast metabolising enzymes remove a compound, apart from limits set by blood flow. As to `CN(C)c1ccc2[nH]c(C3COc4ccc(Oc5ccnc6c5CCC(=O)N6)cc4C3)nc2c1` (stereo not drawn) [Compound 26], the IC50 in data set [1] is 64.6 nM; in data set [2] (absolute IC50) it was 302 nM. In addition, the microsomal CLint at 1 μM came to 77.5 µL/min/mg in data set [3] and 89.3 µL/min/mg in data set [4]. Further, the “mPPB (% free)” value in data set [5] (setting [6]) was found to be 1 % free.
For `Cc1cc2nc(C3COc4ccc(Oc5ccnc6c5CCC(=O)N6)cc4C3)[nH]c2cc1C` (stereo not drawn) [Compound 29], the IC50 is 32.4 nM in data set [1] and 107 nM in data set [2] (absolute IC50). Besides, the intrinsic clearance (microsomal CLint) at 1 μM in data set [3] was 119 µL/min/mg; in data set [4], 77.6 µL/min/mg. In addition, the “mPPB (% free)” value in data set [5] (setting [6]) is recorded as 0.6 % free.
Regarding `O=C1CCc2c(Oc3ccc4c(c3)CN(c3nc(-c5ccccc5)n[nH]3)CC4)ccnc2N1` [Compound 44, 5-[[2-(3-phenyl-1H-1,2,4-triazol-5-yl)-3,4-dihydro-1H-isoquinolin-7-yl]oxy]-3,4-dihydro-1H-1,8-naphthyridin-2-one hydrochloride], the IC50 was 1200 nM in data set [1] and 355 nM in data set [2] (absolute IC50). Moreover, the figures for the microsomal CLint at 1 μM in data set [3] and in data set [4] were 14.2 µL/min/mg and 11 µL/min/mg, respectively. Also, the “mPPB (% free)” value in data set [5] (setting [6]) is 0.9 % free.
In the case of `O=C(Nc1cc(Oc2ccc3c(c2)CC(c2nc(-c4ccccc4)c[nH]2)CO3)ccn1)C1CC1` (stereo not drawn) [Compound 45, N-[4-[3-(4-phenyl-1H-imidazol-2-yl)chroman-6-yl]oxy-2-pyridyl]cyclopropanecarboxamide], the IC50 in data set [1] is 162 nM; in data set [2] (absolute IC50), 66.1 nM. Further, the microsomal CLint at 1 μM in data set [3] came to 58.1 µL/min/mg; in data set [4], 277 µL/min/mg. Also, the “mPPB (% free)” value in data set [5] (setting [6]) worked out at 0.2 % free.
Taken in the same sequence, the figures for `O=C1CCc2c(Oc3ccc4c(c3)CN(C(=O)Nc3ccc(C(F)(F)F)cc3)CC4)ccnc2N1` [Compound 47] were 229 nM, 117 nM, 24.5 µL/min/mg, 32.5 µL/min/mg and 0.3 % free.
In the case of `O=C1CCc2c(Oc3ccc4c(c3)CN(C(=O)Nc3cccc(C(F)(F)F)c3)CC4)ccnc2N1` [Compound 50], the IC50 in data set [1] was 269 nM; in data set [2] (absolute IC50), 97.7 nM. In addition, the microsomal CLint at 1 μM in data set [3] is 70.4 µL/min/mg; in data set [4] it was 79 µL/min/mg. In data set [5] (setting [6]), the “mPPB (% free)” value is reported as 1.6 % free.
Consider `O=C1CCc2c(Oc3ccc4c(c3)CC(c3nc(-c5ccnc(C(F)F)c5)c[nH]3)CO4)ccnc2N1` (stereo not drawn) [Compound 101, 5-[3-[4-[2-(difluoromethyl)-4-pyridyl]-1H-imidazol-2-yl]chroman-6-yl]oxy-3,4-dihydro-1H-1,8-naphthyridin-2-one], for which the IC50 in data set [1] was 204 nM; in data set [2] (Abs), 182 nM. Moreover, the values for the microsomal CLint at 1 μM in data set [3] (37° C.) and in data set [4] (37° C.) were 29.6 µL/min/mg and 15.2 µL/min/mg, respectively. For the same compound, in data set [5] (setting [7]), the “mPPB (% free)” value stood at 1.1 % free.
As to `O=C1CCc2c(Oc3ccc4c(c3)CC(c3nc(-c5cncc(C(F)(F)F)c5)c[nH]3)CO4)ccnc2N1` (stereo not drawn) [Compound 103, 5-[3-[4-[5-(trifluoromethyl)-3-pyridyl]-1H-imidazol-2-yl]chroman-6-yl]oxy-3,4-dihydro-1H-1,8-naphthyridin-2-one], the results for the IC50 in data set [1] and in data set [2] (Abs) were 389 nM and 269 nM, respectively. For the same compound, the results for the intrinsic metabolic clearance (microsomal CLint) at 1 μM in data set [3] (37° C.) and in data set [4] (37° C.) were 11.6 µL/min/mg and 4.4 µL/min/mg, respectively. The “mPPB (% free)” value in data set [5] (setting [7]) is recorded as 0.6 % free.
Regarding `O=C1CCc2c(Oc3ccc4c(c3)CC(c3nc(-c5cncc(C(F)F)c5)c[nH]3)CO4)ccnc2N1` (stereo not drawn) [Compound 105, 5-[3-[4-[5-(difluoromethyl)-3-pyridyl]-1H-imidazol-2-yl]chroman-6-yl]oxy-3,4-dihydro-1H-1,8-naphthyridin-2-one], the IC50 is 417 nM in data set [1] and 269 nM in data set [2] (Abs). The intrinsic clearance (microsomal CLint) at 1 μM in data set [3] (37° C.) was 24.8 µL/min/mg; in data set [4] (37° C.) it was 2.1 µL/min/mg. Besides, the “mPPB (% free)” value in data set [5] (setting [7]) is given as 0.86 % free.
For `Cc1cc(-c2c[nH]c(C3COc4ccc(Oc5ccnc6c5CCC(=O)N6)cc4C3)n2)n(C)n1` (stereo not drawn) [Compound 106, 5-[3-[4-(2,5-dimethylpyrazol-3-yl)-1H-imidazol-2-yl]chroman-6-yl]oxy-3,4-dihydro-1H-1,8-naphthyridin-2-one], the IC50 in data set [1] was 933 nM; in data set [2] (Abs), 589 nM. In addition, the results for the microsomal CLint at 1 μM in data set [3] (37° C.) and in data set [4] (37° C.) were 10.5 µL/min/mg and 17.1 µL/min/mg, respectively. Further, in data set [5] (setting [7]), the “mPPB (% free)” value was 3.0 % free.
Consider `Cn1nc(C(F)(F)F)cc1-c1c[nH]c(C2COc3ccc(Oc4ccnc5c4CCC(=O)N5)cc3C2)n1` (stereo not drawn) [Compound 107, 5-[3-[4-[2-methyl-5-(trifluoromethyl)pyrazol-3-yl]-1H-imidazol-2-yl]chroman-6-yl]oxy-3,4-dihydro-1H-1,8-naphthyridin-2-one], for which the IC50 in data set [1] is 178 nM; in data set [2] (Abs), 209 nM. Also, the intrinsic clearance (microsomal CLint) at 1 μM was 30.3 µL/min/mg in data set [3] (37° C.) and 12.5 µL/min/mg in data set [4] (37° C.). In addition, in data set [5] (setting [7]), the “mPPB (% free)” value was 0.3 % free.
As for `Cc1ccc(-c2c[nH]c(C3COc4ccc(Oc5ccnc6c5CCC(=O)N6)cc4C3)n2)s1` (stereo not drawn) [Compound 110], the IC50 in data set [1] is 107 nM; in data set [2] (Abs), 70.8 nM. For the same compound, the microsomal CLint at 1 μM in data set [3] (37° C.) was determined as 48.3 µL/min/mg; in data set [4] (37° C.), 55.5 µL/min/mg. Further, in data set [5] (setting [7]), the “mPPB (% free)” value was 0.1 % free.
For `CCc1cc(-c2c[nH]c(C3COc4ccc(Oc5ccnc6c5CCC(=O)N6)cc4C3)n2)n(C)n1` (stereo not drawn) [Compound 111], the results for the IC50 in data set [1] and in data set [2] (Abs) were 537 nM and 324 nM, respectively. In addition, the microsomal CLint at 1 μM in data set [3] (37° C.) came out at 48.1 µL/min/mg; in data set [4] (37° C.), 26.9 µL/min/mg. Also, the “mPPB (% free)” value in data set [5] (setting [7]) is given as 1.73 % free.
Take `Cc1cc(-c2c[nH]c(C3COc4ccc(Oc5ccnc6c5CCC(=O)N6)cc4C3)n2)n(C(C)C)n1` (stereo not drawn) [Compound 112, 5-[3-[4-(2-isopropyl-5-methyl-pyrazol-3-yl)-1H-imidazol-2-yl]chroman-6-yl]oxy-3,4-dihydro-1H-1,8-naphthyridin-2-one]: the IC50 in data set [1] is 1780 nM; in data set [2] (Abs) it was 1000 nM. In addition, the microsomal CLint at 1 μM in data set [3] (37° C.) came to 81.5 µL/min/mg; in data set [4] (37° C.), 55.5 µL/min/mg. For the same compound, the “mPPB (% free)” value in data set [5] (setting [7]) was determined as 2.0 % free.
Consider `CCc1cc(-c2c[nH]c(C3COc4ccc(Oc5ccnc6c5CCC(=O)N6)cc4C3)n2)n(C2CC2)n1` (stereo not drawn) [Compound 113, 5-[3-[4-(2-cyclopropyl-5-ethyl-pyrazol-3-yl)-1H-imidazol-2-yl]chroman-6-yl]oxy-3,4-dihydro-1H-1,8-naphthyridin-2-one], for which the IC50 in data set [1] is 4680 nM; in data set [2] (Abs) it was 1480 nM. The values for the microsomal CLint at 1 μM in data set [3] (37° C.) and in data set [4] (37° C.) were 82.1 µL/min/mg and 38.2 µL/min/mg, respectively. For the same compound, the “mPPB (% free)” value in data set [5] (setting [7]) was determined as 1.6 % free.

These data come from patent US12304912B2, “Fused bicyclic RAF inhibitors and methods for use thereof” (Jazz Pharmaceuticals Ireland Limited, priority 2020, dated 2025).
